We go through 23 molecules from patent publication US20260007639A1, “COMPOUNDS FOR THE TREATMENT OF NEUROMUSCULAR DISORDERS” (NMD PHARMA A/S, priority 2017, published 2026).

The first assay addresses T1, CIC-1 channels (Rattus norvegicus, UniProt P35524).
T1 sequence (P35524 1-994): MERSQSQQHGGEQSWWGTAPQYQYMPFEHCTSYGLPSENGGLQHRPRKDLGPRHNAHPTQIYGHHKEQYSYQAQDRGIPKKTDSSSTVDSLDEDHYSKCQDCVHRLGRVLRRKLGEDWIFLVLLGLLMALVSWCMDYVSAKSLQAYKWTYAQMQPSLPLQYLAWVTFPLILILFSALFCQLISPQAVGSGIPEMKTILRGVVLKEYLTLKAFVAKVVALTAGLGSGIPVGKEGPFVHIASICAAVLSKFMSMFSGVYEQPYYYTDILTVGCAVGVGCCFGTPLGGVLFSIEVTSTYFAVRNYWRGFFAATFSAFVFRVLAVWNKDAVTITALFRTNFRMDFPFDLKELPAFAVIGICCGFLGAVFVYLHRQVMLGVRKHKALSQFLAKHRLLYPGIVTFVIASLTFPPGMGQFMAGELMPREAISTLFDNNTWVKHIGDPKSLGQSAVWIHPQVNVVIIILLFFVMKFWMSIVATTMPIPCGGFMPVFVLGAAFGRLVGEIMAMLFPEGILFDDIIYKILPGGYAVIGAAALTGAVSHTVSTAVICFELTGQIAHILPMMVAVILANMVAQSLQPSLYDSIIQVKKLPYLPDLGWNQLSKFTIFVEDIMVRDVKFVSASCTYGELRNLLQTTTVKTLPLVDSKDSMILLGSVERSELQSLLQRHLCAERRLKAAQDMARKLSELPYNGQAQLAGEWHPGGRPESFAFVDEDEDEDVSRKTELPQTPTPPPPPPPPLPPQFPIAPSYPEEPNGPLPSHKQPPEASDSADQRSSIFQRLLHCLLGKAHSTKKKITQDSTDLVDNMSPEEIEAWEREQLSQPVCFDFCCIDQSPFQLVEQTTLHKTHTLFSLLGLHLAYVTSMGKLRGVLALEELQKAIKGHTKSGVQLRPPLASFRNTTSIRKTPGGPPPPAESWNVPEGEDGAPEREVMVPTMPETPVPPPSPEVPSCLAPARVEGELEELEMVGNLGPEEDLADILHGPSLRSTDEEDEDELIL
Kind of assay: Electrophysiological measurement of compound inhibition of CIC-1 (Gm) in rat soleus muscle fibres: EC50 (Table 7).
Conditions: not given
Turning to `CC[C@H](Oc1ccc(Br)cc1-c1ccno1)C(=O)O` [Compound A-1, (2S)-2-[4-bromo-2-(1,2-oxazol-5-yl)phenoxy]butanoic acid], the EC50 was 12.4 µM.

The molecule `O=C(O)[C@H](CF)Oc1cc(F)c(Br)cc1-c1ccon1` [Compound A-63, (2R)-2-[4-bromo-5-fluoro-2-(1,2-oxazol-3-yl)phenoxy]-3-fluoropropanoic acid] came in with a concentration giving a half-maximal response (EC50) of 10.8 µM. For `C[C@H](Oc1ccc(Br)cc1-c1cc(C2CC2)on1)C(=O)O` [Compound A-11, (2S)-2-[4-bromo-2-(5-cyclopropyl-1,2-oxazol-3-yl)phenoxy]propanoic acid], the EC50 is 10.3 µM. Regarding `O=C(O)[C@H](CC1CCC1)Oc1ccc(Br)cc1-c1ccon1` [Compound A-71, (2S)-2-[4-bromo-2-(1,2-oxazol-3-yl)phenoxy]-3-cyclobutylpropanoic acid], the EC50 turned out to be 6.5 µM. In the case of `CC[C@H](Oc1ccc(Cl)cc1-c1ccon1)C(=O)O` [Compound A-35, (2S)-2-[4-chloro-2-(1,2-oxazol-3-yl)phenoxy]butanoic acid], it took 10.4 µM to reach a half-maximal effect (EC50). Against the preceding molecule, the EC50 is about 1.6-fold higher. `O=C(O)[C@H](CF)Oc1ccc(Cl)cc1-c1ccon1` [Compound A-39, (2R)-2-[4-chloro-2-(1,2-oxazol-3-yl)phenoxy]-3-fluoropropanoic acid] had an EC50 of 5.2 µM. Compared with the last molecule, the EC50 is about 2-fold lower. `C[C@H](Oc1ccc(Cl)cc1-c1csnn1)C(=O)O` [Compound A-62, (2S)-2-[4-chloro-2-(1,2,3-thiadiazol-4-yl)phenoxy]propanoic acid]: the response was half-maximal at 9.4 µM (EC50). This EC50 is about 1.8-fold higher than that of the molecule before.

`CC(C)[C@H](Oc1ccc(Br)cc1-c1ccon1)C(=O)O` [Compound A-3, (2S)-2-[4-bromo-2-(1,2-oxazol-3-yl)phenoxy]-3-methylbutanoic acid]: it took 11.6 µM to reach a half-maximal effect (EC50). Molecule `C[C@@H](Oc1ccc(Br)cc1-c1ccno1)C(=O)O` [(2R)-A-22] gave an EC50 above 80 µM. Still for that read-out and setting: the same measure for `O=C(O)[C@H](CF)Oc1cc(F)c(Cl)cc1-c1ccon1` [Compound A-47, (2R)-2-[4-chloro-5-fluoro-2-(1,2-oxazol-3-yl)phenoxy]-3-fluoropropanoic acid]: 7.7 µM; for `O=C(O)COc1ccc(Br)cc1-c1ccno1` [Compound A-69, 2-[4-bromo-2-(1,2-oxazol-5-yl)phenoxy]acetic acid]: 7.8 µM.

For the next assay, the system named is rat soleus muscles. Kind of assay: Recovery of nerve-stimulated force in isolated rat soleus muscles exposed to sub-maximal tubocurarine (Table 1). Particulars: 150 μM compound; % change in AUC compared to AUC before addition, after 40 min in tubocurarine. How it is done: The motor nerve was stimulated every 10 min for 2 s with 30 Hz with field stimulation using short duration pulses. […] Traces are shown before addition tubocurarine, after 40 min with tubocurarine, and after 110 min tubocurarine. […] This recovery of force was used in Table 1.
Experiments were performed using rat soleus muscles from either young (4-wk-old) or adult Wistar rats (12-14-week-old). Animal handling, killing and isolation of muscle is described elsewhere All experiments were performed using normal Krebs-Ringer bicarbonate solution (NKR). In solutions with elevated Mg^2+, MgCl^2 was added to NKR-solution causing minor increases in osmolarity and ionic strength. In solutions with elevated K^+, 4 mM NaCl was replaced by 4 mM KCl in the NKR.
In all contraction experiments, isometric force production was determined and force produced during contractions was quantified by measuring the integral of the force response (AUC). Stimulation and force recordings have been described elsewhere. […] In these latter experiments, extracellular recordings of action potentials (M-waves) could be measured without temporal overlap with stimulation artefacts.
The aim was to find compounds that by inhibition of CIC-1 channels can recover nerve-stimulated force under conditions of fatigue including conditions where fatigue is caused by compromised neuromuscular transmission. Neuromuscular transmission dysfunction can develop because of both pre- and/or post-synaptic complications in connection with a disorder or as part of neuromuscular blockade during/after surgery. In the initial series of drug testing, experiments were performed with isolated muscles in the presence of sub-maximal ACh receptor antagonist tubocurarine. Since the inclusion of tubocurarine caused a partial loss of neuromuscular transmission this experiment mimics the conditions in myasthenia gravis and neuromuscular blockade. To mimic conditions with pre-synaptic complication (Lambert Eaton syndrome, motor neuron disorder, polyneuropathy) the intact nerve-muscle preparations were incubated at elevated extracellular Mg^2+, which is known to suppress release of ACh from nerve terminals of motor neurons. […]
For comparison with the muscle only exposed to tubocurarine (grey trace), the two traces have been overlaid. […] For comparison, muscles only exposed to tubocurarine have been included. The dotted line indicates the recovery of force with C8 when compared to the force production before its addition. This value was used in Table 1 for evaluation of the efficacy of the different compounds in recovering force.
Regarding `Cl.NCC(Oc1ccc(F)cc1)C(=O)O` (stereo not drawn) [Compound C9, 3-amino-2-(4-fluorophenoxy)propanoic acid hydrochloride], the “150 μM % change after addition (AUC force)” value (“150 μM % change” below) was −13%.

Take `C[C@H](OCc1ccccc1)C(=O)O` [Compound C5, (2S)-2-(benzyloxy)propanoic acid]: the “150 μM % change” value is 1%. Take `CC(C(=O)O)S(=O)(=O)c1ccc(F)cc1` (stereo not drawn) [Compound C6, 2-(4-fluorobenzenesulfonyl)propanoic acid]: the “150 μM % change” value is on record as −8%.

The same assay, now with this note: 500 μM compound; % change in AUC compared to AUC before addition, after 40 min in tubocurarine.
Consider `Cl.NCC(Oc1ccc(F)cc1)C(=O)O` (stereo not drawn) [Compound C9, 3-amino-2-(4-fluorophenoxy)propanoic acid hydrochloride], for which the “500 μM % change after addition (AUC force)” value (“500 μM % change” for short) was 5%.

Regarding `C[C@H](OCc1ccccc1)C(=O)O` [Compound C5, (2S)-2-(benzyloxy)propanoic acid], the “500 μM % change” value is 42%.

On to `CC(C(=O)O)S(=O)(=O)c1ccc(F)cc1` (stereo not drawn) [Compound C6, 2-(4-fluorobenzenesulfonyl)propanoic acid], for which the “500 μM % change” value came to 9%.

For the next assay, the system named is rat soleus muscles. In words: Recovery of force in isolated rat soleus nerve-muscle preparations after 115 nM tubocurarine, 50 μM compound (Table 8). Particulars: 40 mins exposure. On the procedure:
Force traces from a representative muscle stimulated to contract in 1) control condition before addition of neuromuscular blocking agent, 2) the force response to stimulation after 90 minutes incubation with Tubocurarine. […] The traces presented in FIG. 12A (1, 2, 3), correspond to the dotted lines in FIG. 12B, respectively.
Recovery of force is quantified as the percentage of the force prior to tubocurarine that is recovered by the compound.
The current invention relates to compounds that inhibit CIC-1 ion channels and increase muscle excitability and thereby improve muscle function in clinical conditions where muscle activation is failing. Such conditions result in loss of contractile function of skeletal muscle, weakness and excessive fatigue. In this series of experiments the compounds were tested for their ability to restore contractile function of isolated rat muscle when the neuromuscular transmission had been compromised akin to neuromuscular disorders.
Experimentally, soleus muscles from 4-5 wk old rats were isolated with the motor nerve remaining attached. The nerve-muscle preparations were mounted in experimental setups that enabled electrical stimulation of the motor nerve. Stimulation of the motor nerve led to activation of the muscle fibres and ensuing force production that was recorded.
After mounting the nerve-muscle preparation in the experimental setup, the contractile function of the muscle was initially assessed under the control conditions (FIG. 2A). […] The experimental condition mimics the failing neuromuscular transmission in a range of neuromuscular disorders. After addition of tubocurarine the contractile force declined over the next 90 mins to 10-50% of the control force. 50 μM of the test compound was then added and the contractile force recovered despite the continued presence of tubocurarine. To quantify the ability of the compound to restore force the percentage of the initial force that was restored was determined after 40 mins of compound exposure (FIG. 2B) and the point increase is reported in Table 8.
In the case of `CC[C@H](Oc1ccc(Br)cc1-c1ccno1)C(=O)O` [Compound A-1, (2S)-2-[4-bromo-2-(1,2-oxazol-5-yl)phenoxy]butanoic acid], the “Point increase (%) of initial force that was restored” value (from here on “Point increase (%)”) is reported as 18%. Turning to `O=C(O)COc1ccc(Cl)cc1-c1ccno1` [Compound A-78, 2-[4-chloro-2-(1,2-oxazol-5-yl)phenoxy]acetic acid], the “Point increase (%)” value amounted to 17%. Consider `CC[C@H](Oc1ccc(Cl)cc1-c1ccno1)C(=O)O` [Compound A-49, (2S)-2-[4-chloro-2-(1,2-oxazol-5-yl)phenoxy]butanoic acid], for which the “Point increase (%)” value is listed as 16%. `O=C(O)[C@H](CF)Oc1cc(F)c(Br)cc1-c1ccon1` [Compound A-63, (2R)-2-[4-bromo-5-fluoro-2-(1,2-oxazol-3-yl)phenoxy]-3-fluoropropanoic acid]: the “Point increase (%)” value worked out at 23%. Same read-out and setting: the same measure for `C[C@H](Oc1ccc(Br)cc1-c1cc(C2CC2)on1)C(=O)O` [Compound A-11, (2S)-2-[4-bromo-2-(5-cyclopropyl-1,2-oxazol-3-yl)phenoxy]propanoic acid]: 19%. `CC[C@H](Oc1ccc(Br)cc1-c1csnn1)C(=O)O` [Compound A-67, (2S)-2-[4-bromo-2-(1,2,3-thiadiazol-4-yl)phenoxy]butanoic acid]: the “Point increase (%)” value was found to be 13%. Regarding `O=C(O)[C@H](CF)Oc1ccc(Br)cc1-c1ccno1` [Compound A-21, (2R)-2-[4-bromo-2-(1,2-oxazol-5-yl)phenoxy]-3-fluoropropanoic acid], the “Point increase (%)” value is on record as 13%. On the same count and under the same terms, the same measure for `O=C(O)[C@H](CC1CCC1)Oc1ccc(Br)cc1-c1ccon1` [Compound A-71, (2S)-2-[4-bromo-2-(1,2-oxazol-3-yl)phenoxy]-3-cyclobutylpropanoic acid]: 15%; for `CC[C@H](Oc1ccc(Cl)cc1-c1ccon1)C(=O)O` [Compound A-35, (2S)-2-[4-chloro-2-(1,2-oxazol-3-yl)phenoxy]butanoic acid]: 28%; for `O=C(O)[C@H](CC1CC1)Oc1ccc(Cl)cc1-c1ccno1` [Compound A-52, (2S)-2-[4-chloro-2-(1,2-oxazol-5-yl)phenoxy]-3-cyclopropylpropanoic acid]: 11%.

With `O=C(O)[C@H](CF)Oc1ccc(Cl)cc1-c1ccon1` [Compound A-39, (2R)-2-[4-chloro-2-(1,2-oxazol-3-yl)phenoxy]-3-fluoropropanoic acid], the “Point increase (%)” value came to 36%.

`O=C(O)COc1ccc(Br)cc1-c1csnn1` [Compound A-79, 2-[4-bromo-2-(1,2,3-thiadiazol-4-yl)phenoxy]acetic acid]: the “Point increase (%)” value is recorded as 17%.

Take `C[C@H](Oc1ccc(Cl)cc1-c1csnn1)C(=O)O` [Compound A-62, (2S)-2-[4-chloro-2-(1,2,3-thiadiazol-4-yl)phenoxy]propanoic acid]: the “Point increase (%)” value is recorded as 17%. For `O=C(O)[C@H](CF)Oc1ccc(Br)cc1-c1csnn1` [Compound A-66, (2R)-2-[4-bromo-2-(1,2,3-thiadiazol-4-yl)phenoxy]-3-fluoropropanoic acid], the “Point increase (%)” value was 13%. As to `O=C(O)[C@H](CC1CC1)Oc1ccc(Br)cc1-c1csnn1` [Compound A-75, (2S)-2-[4-bromo-2-(1,2,3-thiadiazol-4-yl)phenoxy]-3-cyclopropylpropanoic acid], the “Point increase (%)” value is 10%. Turning to `C[C@@H](Oc1ccc(Br)cc1-c1ccno1)C(=O)O` [(2R)-A-22], the “Point increase (%)” value was −3%. `O=C(O)[C@H](CF)Oc1cc(F)c(Cl)cc1-c1ccon1` [Compound A-47, (2R)-2-[4-chloro-5-fluoro-2-(1,2-oxazol-3-yl)phenoxy]-3-fluoropropanoic acid]: the “Point increase (%)” value is 19%. Take `C[C@H](Oc1ccc(Cl)cc1-c1cocn1)C(=O)O` [Compound A-46, (2S)-2-[4-chloro-2-(1,3-oxazol-4-yl)phenoxy]propanoic acid]: the “Point increase (%)” value is 11%. `O=C(O)COc1ccc(Br)cc1-c1ccno1` [Compound A-69, 2-[4-bromo-2-(1,2-oxazol-5-yl)phenoxy]acetic acid]: the “Point increase (%)” value was 15%.
